Here are results for twelve molecules from patent US20230330111A1, “ACTIVE AGENT COMBINATION FOR TREATMENT OF CANCER” (HELMHOLTZ ZENTRUM MÜNCHEN - DEUTSCHES FORSCHUNGSZENTRUM FÜR …, priority 2020, published 2023).

Series [1] relates to preclinical tumor rodent models. Particulars: single drug; background art; cited from earlier work.
A further series concerns B42 organoids. Kind of series: Paclitaxel sensitization in B42 organoids. In kind it is cell-based, human. The following applies: triple combination with NEN and TCAs vs Paclitaxel alone. On the procedure:
(§1) Primary patient-derived PDAC (Pancreatic ductal adenocarcinoma) three-dimensional (3D) organoids were generated from primary resected human PDAC surgical specimen according to the “Tuveson protocol” described in (Tiriac et al., 2018) and in the methods and extended methods sections of a publication by the group of Hans Clevers (Driehuis et al., 2019). Generation and culturing of primary-dispersed human PDAC cells was performed as recently described (Biederstadt et al., 2020). Written informed consent from the patients for research purposes was obtained prior to the investigation.
(§2) To determine drug induced toxicity in spheroid cultures, the Promega CellToXGreen and RealTime-Glo™ MT Cell Viability kits were used according to the manufacturers protocols. Briefly, Toxicity and viability dyes were mixed with cell culture medium and added prior to drug treatment. Fluorescence and luminescence were measured over the course of 3 days on a Thermo Fisher Varioskan Lux plate reader.
(§3) To investigate the efficacy of targeting the described metabolic stress response in a more heterogeneous cancer cell population, which better reflect the tumor biology, cultures of primary tumor-derived organoids from two patients with pancreatic cancer have been used. Organoids were seeded at a density of 1000 cells per well and let grow for 7 days prior to treatment.

Another series concerns PDO-48 organoids. Kind of series: Paclitaxel sensitization in PDO-48 organoids. The class given is cell-based, human. Particulars: triple combination with NEN and TCAs vs Paclitaxel alone. On the procedure: as §1, §2, §3
The test system of series [2] is HCT116 cells. Put plainly: Cell death / ratio of toxicity and viability in HCT116 (monolayer and spheroids). The class given is cell-based. Particulars: for attenuation of cell death induced by NEN drug combinations: HCT116 monolayer or spheroids, ISRIB 1 μM or Cyclodextrin in medium; for cell death / toxicity (ratio of toxicity and viability): HCT116, 2D or 3D spheroids, NEN 1.2 μM, FCCP 2.5 μM, 2-DG 100 mM, Domp, Imi, Desi, Ami 30 μM, Clomi 20 μM. On the procedure: (§4) HCT116, BxPC3 and U87 cell lines were maintained in Dulbecco's modified Eagle's medium (DMEM) (Gibco) supplemented with 10% fetal bovine serum (FBS; Millipore) and Penicilin/Streptomycine (Life Tehnologies), and cultured at 37° C., 5% CO2 and 95 humidity. For spheroid formation, 10000 cells were plated in ultra-low attachment plates (Fisher Scientific), centrifuged at 850 G for 10 min and incubated for 3 days until treatment, with medium change every 3 days.
as §2
(§5) For Caspase 3/7 activity and general cytotoxicity in 2D cell culture the Apo One Homogenous Caspase-3/7 Assay and Multitox Fluor assays were employed respectively, according to the manufacturers protocol. Cells were seeded in 96-wells one day prior to treatment and incubated 24-48 h before assaying.

A further series deals with U87 cells. Kind of series: Cell death / ratio of toxicity and viability in U87 (spheroids). The class given is cell-based. The following applies: for attenuation of cell death induced by NEN drug combinations: U87 spheroids, ISRIB 1 μM or Cyclodextrin 0.75%; for cell death / toxicity (ratio of toxicity and viability): U87, NEN 1.2 μM, FCCP 2.5 μM, 2-DG 100 mM, Domp, Imi, Desi, Ami 30 μM, Clomi 20 μM. On the procedure: as §4, §2, §5

In another series the test system is BxPC3 cells. Put plainly: Cell death / ratio of toxicity and viability in BxPC3 (monolayer). The class given is cell-based. Particulars: for cell death / toxicity (ratio of toxicity and viability): BxPC3, NEN 1.2 μM, FCCP 2.5 μM, 2-DG 100 mM, Domp, Imi, Desi, Ami 30 μM, Clomi 20 μM. On the procedure:
as §4, §2, §5

Another series concerns ATF4, CHOP and Gadd34. Put plainly: qPCR of ISR genes. The class given is cell-based. Particulars: HCT116; for ISR marker gene expression (ATF4, CHOP, Gadd34 mRNA): NEN 1.2 μM, Domp and TCAs 30 μM, Clomi 20 μM. An excerpt:
RNA was isolated using the Qiagen […] kit following the manufacturers protocol and reverse transcribed using the Quantitect reverse transcription kit (Qiagen). cDNA was amplified using the PowerUp SYBRGreen mastermix (LifeTechnologies), the following primers and an Applied Biosystems Quantstudio 6 cycler. RNA expression data were normalized to the level of beta-actin expression.
(In qPCR the cycle at which signal appears reflects the starting amount.)

Series [3] deals with HCT116 cells. Put plainly: High-throughput phenotypic screen with NEN co-treatment (FDA-approved and GPCR libraries). The class given is cell-based. Particulars: NEN 1.2 μM, 24 h, FDA-approved drug library and GPCR library. The method, then:
Plate and liquid handling was performed using a HTS platform system composed of a Sciclone G3 Liquid Handler from PerkinElmer (Waltham, MA, USA) with a Mitsubishi robotic arm (Mitsubishi Electric, RV-3511), a MultiFloTM Dispenser (Biotek Instruments, Bad Friedrichshall, Germany) as well as a CytomatTM Incubator (Thermo Fisher Scientific, Waltham, MA, USA). Cell seeding and assays were performed in black 384-well plates (Greiner bio one 384-well μCLEAR®, BLACK, 781091). The plates were coated with poly-D-lysine (Sigma-Aldrich, St. Louis, MA, USA) for 1 h at room temperature to facilitate a better cell adherence. Cells were seeded in 384-well microplates with a cell number of 12,000 cells/well. The signals of the MultiTox-Fluor assays were detected on the EnVision® Multilabel Reader (PerkinElmer, Waltham, MA, USA). The Prestwick Chemical library contains 1,280 small molecule compounds, which are 100% approved drugs (Food and Drug Administration (FDA), European Medicines Agency (EMA) and other agencies). The purity of the compounds was >90% as reported by the provider of the compounds. The GPCR compound library was purchased from MedChem Express (Cat. No.: HY-[…]). The Z' factor was calculated as described by Zhang and colleagues (Zhang, Chung et al., 1999). For screening of the FDA and GPCR small molecule libraries, HCT116 cells were washed with PBS, trypsinized, and resuspended in cell culture medium. The cell suspension (12,000 cells in 50 μl per well) was dispensed into poly-D-lysine pre-coated 384-well plates (Greiner bio one 384-well pCLEAR®, BLACK, 781091) and incubated at 37° C. with 5% CO2. 24 h after seeding, either 5 μl of NEN (negative control), NEN+Nutlin-3a (positive control), or DMSO alone (solvent control) dissolved in cell culture media were dispensed to the assay plate (NEN, final concentration: 1.2 μM; Nutlin-3a, final concentration: 25 μM). In addition, the same day cells were treated either with compound (1 mM stock solution) dissolved in 100% DMSO or DMSO alone. 0.5 μl of compounds/DMSO were transferred to 55 μl cell culture medium per well to keep the final DMSO volume concentration below 1.0%. The cells were then incubated (37° C.; 5% CO2) for 24 h prior to adding 50 μl MultiTox-Fluor Multiplex Cytotoxicity Assay reagent (Promega). Live-cell fluorescence (excitation=400 nm; emission=505 nm) and dead-cell fluorescence (excitation=485 nm; emission=520 nm) were recorded with an EnVision multilabel reader (PerkinElmer, Waltham, USA). The ratio for live/dead was calculated and normalized to the negative/vehicle control. For hit selection a threshold of lower than 3 standard deviations from the median of the negative/vehicle population was set.

A further series has as its system UPP1. Put plainly: UPP1 expression (immunoblot, qPCR) in HCT116. The class given is cell-based. The following applies: ISRIB 1 μM with NEN 1.2 μM + Domperidone 30 μM. The method, then:
Cells were lysed at 4° C. in 100 μl of RIPA buffer (Sigma-Aldrich) containing protease (Roche 11697498001) and phosphatase (Roche 04906837001) inhibitors, and sonicated. Cell extracts were centrifuged 14000×RPM for 5 min 4° C. and the supernatant collected to protein concentration determination with BCA protein assay (Pierce 23225). 10-20 μg of total protein were subjected to SDS-PAGE electrophoresis, and after transfer, membranes were blocked (1 h) and incubated overnight at 4° C. with primary antibodies. After secondary antibody incubation for 1 h at room temperature, signals were visualized by Chemidoc Image System (BioRad) and ImageLab software.
RNA was isolated using the Qiagen RNAesay kit following the manufacturers protocol and reverse transcribed using the Quantitect reverse transcription kit (Qiagen). cDNA was amplified using the PowerUp SYBRGreen mastermix (LifeTechnologies), the following primers and an Applied Biosystems Quantstudio 6 cycler. RNA expression data were normalized to the level of beta-actin expression.

Series [4] concerns HCT116 cells. Kind of series: Caspase 3/7 activity in HCT116. In kind it is cell-based. The following applies: HCT116, 1% serum, NEN 1.2 μM, 18 h. An excerpt: For Caspase 3/7 activity and general cytotoxicity in 2D cell culture the Apo One Homogenous Caspase-3/7 Assay and Multitox Fluor assays were employed respectively, according to the manufacturers protocol. […]
Series [5] has as its system glioblastoma and small-cell lung cancer (SCLC). The following applies: cited from earlier work.
For series [6] the following is noted: compared with its analogue Trimipramine; cited from earlier work.

Entries after “also recorded” stand apart in the source; their conditions may differ.

`O=C(Nc1ccc([N+](=O)[O-])cc1Cl)c1cc(Cl)ccc1O` [niclosamide]: in series [1], the anti-tumor efficacy result was “anti-tumor efficacy in a variety of preclinical tumor rodent models; also recorded: only minor therapeutic efficacy”.

On to `CC(=O)O[C@H]1C(=O)[C@@]2(C)[C@H]([C@H](OC(=O)c3ccccc3)[C@]3(O)C[C@H](OC(=O)[C@H](O)[C@@H](NC(=O)c4ccccc4)c4ccccc4)C(C)=C1C3(C)C)[C@]1(OC(C)=O)CO[C@@H]1C[C@@H]2O` [Paclitaxel], for which the “increase in effectiveness in inducing organoid cell death” value is on record as “up to 100 times” in the series with B42 organoids and “approximately ten” with PDO-48 organoids.

As for Cyclodextrin [CD], the “attenuation of cell death induced by NEN drug combinations” value with HCT116 cells [2] is “CD concentration-dependent suppression of cell death”; in the series with U87 cells, “partially prevented cell death induction”.

`N#CC(C#N)=NNc1ccc(OC(F)(F)F)cc1` [FCCP, Carbonyl cyanide-p-trifluoromethoxyphenylhydrazone]: the “cell death / toxicity (ratio of toxicity and viability)” value in the series with BxPC3 cells, with HCT116 cells [2] and in the series with U87 cells was “did not cause significant toxicity” in each case.

On to `O=c1[nH]c2ccccc2n1CCCN1CCC(n2c(=O)[nH]c3cc(Cl)ccc32)CC1` [Domperidone], for which the “ISR marker gene expression (ATF4, CHOP, Gadd34 mRNA)” value in the series on ATF4, CHOP and Gadd34 was “modest increase in ISR marker gene expression”. In the series with HCT116 cells [3], the “hit in screen (cell death in NEN co-treated but not vehicle treated cells)” value was “scored as hit in both screens; also recorded: one of the top hits in both screens”.

For the molecule `O=CC[C@@H](O)[C@H](O)[C@H](O)CO` [2-DG, 2-deoxyglucose], the “cell death / toxicity (ratio of toxicity and viability)” value in the series on BxPC3 cells, with HCT116 cells [2] and in the series on U87 cells was “but not 2-DG alone caused significant cell death” in each case.

Take `CN(C)CCCN1c2ccccc2CCc2ccc(Cl)cc21` [Clomipramine]: the “hit in screen (cell death in NEN co-treated but not vehicle treated cells)” value in the series on HCT116 cells [3] is given as “represented with several compounds in both screens”.

In the case of `O=C(COc1ccc(Cl)cc1)NC1CCC(NC(=O)COc2ccc(Cl)cc2)CC1` (centres unmarked) [ISRIB], the “effect on drug-induced UPP1 upregulation” value in the series on UPP1 is recorded as “prevented the drug-induced UPP1 upregulation”. The “attenuation of cell death induced by NEN drug combinations” value was “attenuated cell death induction” in the series on BxPC3 cells (BxPC3 monolayer, 48 h); “attenuated cell death induction” with HCT116 cells [2]; “attenuated cell death induction” in the series with U87 cells. Further, in the series with ATF4, CHOP and Gadd34 (ISRIB 1 μM with NEN 1.2 μM + Domperidone 30 μM), the “effect on drug-induced CHOP, Gadd34 and ATF4 expression” value is “prevented the induction of CHOP and of its target gene Gadd34, but did not decrease ATF4 expression significantly”.

For `CNCCCN1c2ccccc2CCc2ccccc21` [Desipramine], in the series on HCT116 cells [3], the “hit in screen (cell death in NEN co-treated but not vehicle treated cells)” value is “represented with several compounds in both screens”.

Turning to `NCCO.O=C(Nc1ccc([N+](=O)[O-])cc1Cl)c1cc(Cl)ccc1O` [NEN, niclosamide ethanolamine], the “cell death / toxicity (ratio of toxicity and viability)” value with BxPC3 cells, in the series on HCT116 cells [2] and in the series on U87 cells was “did not cause significant toxicity” throughout. Moreover, the “ISR marker gene expression (ATF4, CHOP, Gadd34 mRNA)” value in the series with ATF4, CHOP and Gadd34 is given as “modest increase in ISR marker gene expression”. Moreover, the anti-tumor efficacy entry in series [1] was “anti-tumor efficacy in a variety of preclinical tumor rodent models”. The “cell death (caspase activity) under low serum” value in the series with HCT116 cells [4] is listed as “caused significant cell death”.

`CN(C)CCCN1c2ccccc2CCc2ccccc21` [Imipramine]: the “efficacy in preclinical mouse models” value in [5] is “proven efficacy against glioblastoma and small-cell lung cancer (SCLC) in preclinical mouse models”. For the same molecule, the water solubility result in series [6] was “higher water solubility”.

For the molecule `CC(CN(C)C)CN1c2ccccc2CCc2ccccc21` (centres unmarked) [Trimipramine], the “hit in screen (cell death in NEN co-treated but not vehicle treated cells)” value in the series with HCT116 cells [3] is listed as “represented with several compounds in both screens”.
